For experiment [1], the system named is MOLM-13 subcutaneous CDX model. Description: In vivo tumor growth, FLT3-ITD mutated AML subcutaneous CDX model MOLM-13. On the set-up: species or system Balb/c nude mice. The note with it: compound 2 15 or 30 mg/kg PO QD; groups terminated on treatment day 12. Here is the method: The vehicle/control article, 100 mM acetic acid in deionized water, with pH adjustment to 4.8-5.0, was prepared and stored under ambient conditions throughout the 42-day administration in mice.
The test article, compound 2, was freshly prepared in vehicle of 100 mM acetic buffer weekly and stored under ambient conditions. The combination agent gilteritinib was prepared weekly in vehicle of 0.5% Methyl Cellulose & 0.1% Tween 80 Solution weekly and stored under ambient conditions.
Female Balb/c nude mice were between 6-8 weeks of age at the time of implantation. Mice were hosted in a special pathogen-free (SPF) environment of the vivarium facility and acclimated to their new environment for at least 3 days prior to initiation of any experiments according to IACUC protocol.
MOLM-13 was AML cell line that harbored a FLT3-ITD mutation. MOLM-13 cells were cultured in medium containing RPMI1640 plus 10% Fetal Bovine Serum (FBS) and 1% Antibiotic-Antimycotic (AA), at 37° C. in an atmosphere of 5% CO2 in air. The medium was renewed every 2 to 3 days and tumor cells were routinely sub-cultured at a confluence of 80-90% by trypsin-EDTA. Cells growing in an exponential growth phase were harvested and counted for inoculation. […] Animal health and tumor growth were monitored daily. Tumor volume was measured twice a week by caliper when tumors were palpable and measurable. […]

The subject of experiment [2] is ERK1/2 phosphorylation in MV-4-11 cells. Description: Western blot of phosphorylated ERK1/2. Format: cell-based. The note with it: compound 2 alone, 4 hours, relative to DMSO treated control cells. Here is the method:
(§1) Western blotting: Cells were lysed on ice for 10 minutes with Thermo Fisher RIPA lysis buffer with protease and phosphatase inhibitors. The cells were centrifuged at 4° for 10 minutes with a microcentrifuge. The supernatant was transferred to pre-chilled microcentrifuge tube and protein concentration of the lysate was measured using BCA method. Cell lysate supematants of equal-amount of proteins were used for immunoblotting.
(§2) FIG. 3A is a Western blot showing compound 2 and gilteritinib combination induced downregulation of ERK1/2 phosphorylation in MOLM-14 cells. FIG. 3B is a bar plot quantifying the results of […]. The cell lines, MOLM14 and MV-4-11 were split onto a 6 well plate and treated with compound 2 and gilteritinib alone, and in combination as indicated (FIGS. 3A/B and 4A/B). After 4 hours treatment, cells were lysed and immunoblotted for phosphorylated ERK1/2. […] The phosphorylated ERK1/2 bands were quantified by using Bio-Rad Image Lab software and normalized by total ERK.
FIG. 4A is a Western blot showing compound 2 and gilteritinib combination induced downregulation of ERK1/2 phosphorylation in MV-4-11 cells. FIG. 4B is a bar plot quantifying the results of […]. […] The phosphorylated ERK1/2 bands were quantified by using Bio-Rad Image Lab software and normalized by total ERK.

Experiment [3] concerns ERK1/2 phosphorylation in MOLM-14 cells. Description: Western blot of phosphorylated ERK1/2. The note with it: compound 2 alone, 4 hours, relative to DMSO treated control cells. Format: cell-based. As for the experimental part:
as §1, §2

Each structure is given as a SMILES string.

As for `COCOC[C@H]1C[C@H]2COc3c(Sc4cnc(N5CCC6(CC5)CO[C@@H](C)[C@H]6N)c(CO)n4)ccnc3N2C1` [compound 2, (3-((3S,4S)-4-amino-3-methyl-2-oxa-8-azaspiro[4.5]decan-8-yl)-6-(((6aS,8S)-8-((methoxymethoxy)methyl)-6a,7,8,9-tetrahydro-6H-pyrido[3,2-b]pyrrolo[1,2-d][1,4]oxazin-4-yl)thio)pyrazin-2-yl)methanol], in experiment [1], the “tumor growth under monotherapy (group termination)” value is recorded as “rapid tumor growth”. Besides, the “inhibition of ERK1/2 phosphorylation (immunoblot)” value is recorded as “about 50%” in experiment [2] and “about 30%” in experiment [3].

The values are drawn from US20240285624A1, “ERK1/2 OR SHP2 INHIBITORS AND FLT3 INHIBITORS COMBINATION THERAPY” (Erasca, Inc., priority 2021, published 2024).
